Results: PubChem BioAssay (NCI)
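Step 1: Grow cells in 96-well plates. Step 2: Expose to compound for 48 hours at 5 concentrations. Step 3: Interpolate endpoints linearly; if unreached, use highest concentration. TGI is the concentration that stops growth completely.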

Tests used:
Assay in all cases: growth of human tumour cells (NCI), 48 h
786-0 renal = system: 786-0 renal
COLO 205 colon = system: COLO 205 colon
HCT-116 colon = system: HCT-116 colon
HCT-15 colon = system: HCT-15 colon
K-562 leukemia = system: K-562 leukemia
KM12 colon = system: KM12 colon
OVCAR-3 ovarian = system: OVCAR-3 ovarian
SF-268 CNS = system: SF-268 CNS
SK-MEL-5 melanoma = system: SK-MEL-5 melanoma
SNB-19 CNS = system: SNB-19 CNS
HOP-92 NSCLC = system: HOP-92 NSCLC
RPMI-8226 leukemia = system: RPMI-8226 leukemia
MDA-MB-231 breast = system: MDA-MB-231 breast
MDA-MB-435 = system: MDA-MB-435
PC-3 prostate = system: PC-3 prostate
MDA-N = system: MDA-N

Row | Compound | TGI (786-0 renal) [µM] | TGI (COLO 205 colon) [µM] | TGI (HCT-116 colon) [µM] | TGI (HCT-15 colon) [µM] | TGI (K-562 leukemia) [µM] | TGI (KM12 colon) [µM] | TGI (OVCAR-3 ovarian) [µM] | TGI (SF-268 CNS) [µM] | TGI (SK-MEL-5 melanoma) [µM] | TGI (SNB-19 CNS) [µM] | TGI (HOP-92 NSCLC) [µM] | TGI (RPMI-8226 leukemia) [µM] | TGI (MDA-MB-231 breast) [µM] | TGI (MDA-MB-435) [µM] | TGI (PC-3 prostate) [µM] | TGI (MDA-N) [µM]
1 | CC(=O)NC1=C(NCCO)C(=O)c2ccccc2C1=O | > 50 | > 50 | > 50 | > 50 | > 50 | > 50 | > 50 | > 50 | > 50 | > 50 | – | – | – | – | – | –
2 | O=C(O)C(Cc1ccc(O)cc1)N=Cc1nc(-c2ccccc2)oc1O (configuration not stated) | > 100 | > 100 | > 100 | > 100 | > 100 | > 100 | > 100 | > 100 | > 100 | > 100 | > 100 | > 100 | – | – | – | –
3 | COc1ccccc1NC(=S)Nc1ccccn1 | > 100 | > 100 | > 100 | > 100 | > 100 | > 100 | > 100 | > 100 | > 100 | > 100 | – | > 100 | > 100 | > 100 | > 100 | –
4 | Nc1ccc(C(=O)NN2C(=O)C(Cl)C2c2ccc(O)cc2)cc1 (configuration not stated) | 31.3 | 33.4 | 44 | 50.1 | 49.5 | 47.2 | 29.2 | 27 | 31 | 31.4 | 41.8 | > 100 | – | – | – | –
5 | O=C1C[C@@H]2[C@@H](C=CC23CCCC3)N1O | > 100 | > 100 | > 100 | > 100 | > 100 | > 100 | > 100 | > 100 | > 100 | > 100 | – | > 100 | – | – | – | –
6 | CCOC(=O)/C(=C\n1c(=O)sc2ccccc21)C(=O)c1ccccc1 | > 100 | > 100 | > 100 | > 100 | > 100 | > 100 | – | > 100 | > 100 | – | – | > 100 | > 100 | > 100 | > 100 | –
7 | CC(C)CC1C(=O)OC(C)(C)OC1=O | > 100 | > 100 | > 100 | > 100 | > 100 | > 100 | > 100 | > 100 | > 100 | > 100 | – | > 100 | > 100 | > 100 | > 100 | > 100
8 | COc1cc(Br)c(/C=N/N=C(\N)NO)cc1OC | 92.8 | 25.6 | 43.8 | > 100 | 47.3 | > 100 | > 100 | 30.6 | 21.2 | > 100 | 90.5 | > 100 | – | – | – | –
9 | N=c1oc2ccccc2cc1C(=O)Nc1ccccn1 | > 100 | > 100 | > 100 | > 100 | > 100 | > 100 | > 100 | > 100 | > 100 | > 100 | > 100 | > 100 | > 100 | > 100 | – | > 100
10 | O=[N+]([O-])/C(C(Cl)=C(Cl)Cl)=C(\NCc1ccccc1)Sc1ccccc1 | > 100 | 33.2 | > 100 | 35 | > 100 | 36.9 | 34.5 | 57.4 | – | > 100 | – | > 100 | > 100 | 41.3 | > 100 | > 100
11 | COc1cc2c(c(OC)c1OC)[C@@H]1CCCCC[C@@H]1CCC2=O | > 100 | > 77.3 | > 100 | > 100 | > 72.5 | > 100 | > 100 | > 100 | > 100 | > 100 | > 100 | > 64.1 | – | – | – | –
12 | CCc1n[nH]c(=O)n1N | > 100 | > 100 | > 100 | > 100 | > 100 | > 100 | > 100 | > 100 | > 100 | > 100 | > 100 | > 100 | > 100 | > 100 | > 100 | –
13 | O=C1NCC2(CCN(CC3COc4ccccc4O3)CC2)N1c1ccccc1 (configuration not stated) | > 100 | > 100 | > 100 | > 100 | > 100 | > 100 | > 100 | > 100 | > 100 | > 100 | – | > 100 | > 100 | > 100 | > 100 | –
14 | NC(N)=N/N=C/c1c(Cl)nc2n1CCS2 | > 100 | > 100 | 73.7 | > 100 | > 100 | > 100 | > 100 | > 100 | – | > 100 | > 100 | > 100 | – | > 100 | > 100 | > 100
15 | O=C(NC1C(=O)NC(CCc2ccccc2)NC1=O)OCc1ccccc1 (configuration not stated) | > 100 | > 100 | > 100 | > 100 | > 100 | > 100 | > 100 | > 100 | > 100 | > 100 | > 100 | > 100 | > 100 | > 100 | > 100 | –
16 | CC1(C)COC(c2cccc(C(=O)c3ccccc3)c2)=N1 | > 100 | > 100 | > 100 | > 100 | > 100 | > 100 | > 100 | > 100 | 32.1 | > 100 | > 100 | > 100 | > 100 | – | > 100 | > 100
17 | c1ccc(CSCCC(SCc2ccccc2)SCc2ccccc2)cc1 | > 10 | > 10 | > 10 | > 10 | > 10 | > 10 | > 10 | > 10 | > 10 | > 10 | > 10 | > 10 | > 10 | – | > 10 | > 10
